{"source": "patent US9586928B2", "about": "(The Scripps Research Institute, priority 2011, dated 2017)", "key": {"RORβ": {"biological_target": "T1, RORβ (Homo sapiens, UniProt Q92753)", "T1 sequence (Q92753 1-470)": "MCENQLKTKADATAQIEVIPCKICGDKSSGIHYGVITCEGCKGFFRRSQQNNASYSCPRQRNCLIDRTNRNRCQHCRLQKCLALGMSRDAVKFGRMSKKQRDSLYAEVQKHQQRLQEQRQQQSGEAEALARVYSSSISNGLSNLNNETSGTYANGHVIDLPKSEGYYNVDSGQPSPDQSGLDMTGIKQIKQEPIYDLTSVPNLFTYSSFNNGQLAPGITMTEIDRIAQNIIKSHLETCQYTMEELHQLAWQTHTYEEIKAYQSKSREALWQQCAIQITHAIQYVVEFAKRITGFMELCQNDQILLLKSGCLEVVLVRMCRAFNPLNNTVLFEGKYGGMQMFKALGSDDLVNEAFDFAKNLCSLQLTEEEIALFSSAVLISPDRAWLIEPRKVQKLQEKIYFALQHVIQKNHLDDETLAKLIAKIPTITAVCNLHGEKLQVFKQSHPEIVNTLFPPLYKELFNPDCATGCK", "assay": "Binding of radiolabeled T1317 to RORβ", "conditions": "radiolabeled compound"}, "LXR": {"biological_target": "T2, LXR (Homo sapiens, UniProt Q13133)", "T2 sequence (Q13133 209-447 limits assumed)": "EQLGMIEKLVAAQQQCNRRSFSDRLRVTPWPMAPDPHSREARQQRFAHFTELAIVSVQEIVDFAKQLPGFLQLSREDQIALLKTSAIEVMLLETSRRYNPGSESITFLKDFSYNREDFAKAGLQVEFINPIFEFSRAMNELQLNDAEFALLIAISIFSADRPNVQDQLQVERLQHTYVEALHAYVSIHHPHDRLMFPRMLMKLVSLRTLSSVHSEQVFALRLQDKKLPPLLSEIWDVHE", "assay": "Gal4-LXRα / UAS luciferase cotransfection assay", "type": "cell-based", "conditions": "Gal4 chimeric cotransfection", "procedure": "The cells were treated with either DMSO or various compounds as indicated four hours after replating. Following additional 20 hour incubation, luciferase levels were assayed by one-step addition of 20 μL BriteLite (Perkin Elmer) and read using an Envision multilabel plate reader (Perkin Elmer)."}, "RORα [1]": {"biological_target": "T3, RORα (Homo sapiens, UniProt P35398)", "T3 construct": "expressed in transfected cells; host or cells: HEK293T", "T3 sequence (P35398 272-510 limits assumed)": "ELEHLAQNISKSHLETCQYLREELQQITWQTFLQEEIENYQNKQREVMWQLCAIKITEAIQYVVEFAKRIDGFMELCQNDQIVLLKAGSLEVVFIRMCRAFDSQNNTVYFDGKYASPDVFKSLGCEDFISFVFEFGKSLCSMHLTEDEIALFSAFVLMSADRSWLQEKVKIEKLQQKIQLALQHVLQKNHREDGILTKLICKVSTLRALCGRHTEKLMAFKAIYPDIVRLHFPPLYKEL", "assay": "Competitive radioligand binding assay on RORα", "conditions": "data not shown", "text": "Concurrent with our characterization of SR1001, several other groups identified RORγ-specific inverse agonists. Similar to SR1001, these ligands inhibited TH17 cell development and function. […] Compounds were identified using a screening approach similar to SR1001 and a RORγ-selective inverse agonist. SR1555, was identified (FIG. 1a). Compound SR1555 is shown as compound 3 in Table 1. […] Next we examined the direct binding of SR1555 to RORα and RORγ in competitive radioligand binding assays."}, "EL4 cells": {"test_system": "EL4 cells", "assay": "Il17a gene expression in EL4 cells by quantitative real-time PCR", "type": "cell-based, murine", "conditions": "10 μM, 24 hours", "method": "[…]. Cotransfection assays were performed as previously described in HEK293 cells (Gal4 cotransfection assay or IL-17 luciferase reporter)[8]. HEK293 and the mouse lymphoma EL4 (ATCC) cells were maintained in DMEM supplemented with 10% FBS plus antibiotics (penicillin and streptomycin; Invitrogen).\n(§1) RNA extraction and QRT-PCR analysis was performed as previously described."}, "T regulatory cells": {"test_system": "T regulatory cells", "assay": "T regulatory cell differentiation of splenocytes (RTPCR, Foxp3 FACS)", "type": "cell-based, murine", "conditions": "10 μM", "method": "Therefore, the environmental cues associated with the concentration of TGF[…] dictates the balance between TH17 and T regulatory cell differentiation. In light of the reciprocal relationship between these two cell types, we assessed whether SR1555 affected the development of T regulatory cells in vitro. Splenocytes were cultured under T regulatory cell polarizing conditions (TGFβ and IL-2) for 3 days. […] To determine whether the gene expression data would correlate with protein expression, we again cultured splenocytes for 5 days under T regulatory cell polarizing conditions in the presence of DMSO or SR1555 and examined the expression of Foxp3 by intracellular cytokine FACS analysis.\nSplenocytes were differentiated under the following conditions: iTreg-10 μg/mL anti-IFNγ, 10 μg/mL anti-IL-4, and 2 ng/mL TGFβ (R&D Systems); 20 ug/mL anti-IFNγ, 20 ug/mL anti-IL-4, 1 ng/mL TGFβ, and 10 ng/mL IL-6 (R&D Systems) for TH17 conditions. All cultures were stimulated with 1 μg/mL anti-CD3 (eBiosciences) and 1 μg/mL anti-CD28 (eBiosciences). Four to five days after activation, all cells were restimulated with 5 ng/mL phorbol-12-myristate-13-acetate (PMA) (Sigma) and 500 ng/mL ionomycin (Sigma) for 2 hours with the addition of GolgiStop (BD Bioscience) for an additional 2 hours before intracellular staining. Cells were cultured in RPMI 1640 medium (Invitrogen) with 10% FBS and antibiotics.\nas §1"}, "RORα [2]": {"biological_target": "T4, RORα (Homo sapiens, UniProt P35398)", "T4 sequence (P35398 1-523)": "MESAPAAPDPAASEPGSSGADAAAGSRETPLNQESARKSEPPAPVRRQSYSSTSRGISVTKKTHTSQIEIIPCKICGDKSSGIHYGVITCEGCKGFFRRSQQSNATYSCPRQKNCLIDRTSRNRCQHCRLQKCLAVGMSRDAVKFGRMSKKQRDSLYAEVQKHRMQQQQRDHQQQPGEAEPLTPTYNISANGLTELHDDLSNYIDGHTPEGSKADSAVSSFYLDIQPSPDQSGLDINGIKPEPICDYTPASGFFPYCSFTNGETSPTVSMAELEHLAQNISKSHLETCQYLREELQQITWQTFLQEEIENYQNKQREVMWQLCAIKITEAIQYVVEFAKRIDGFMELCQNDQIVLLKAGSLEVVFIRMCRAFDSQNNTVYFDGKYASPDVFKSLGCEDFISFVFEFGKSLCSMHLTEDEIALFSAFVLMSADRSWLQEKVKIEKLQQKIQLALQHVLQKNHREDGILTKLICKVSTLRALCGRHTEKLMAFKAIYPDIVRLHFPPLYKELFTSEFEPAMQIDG", "assay": "IL-17 promoter luciferase reporter with full-length RORα", "type": "cell-based", "text": "Since RORα and RORγ are critical regulators of IL-17 gene expression, we examined whether SR1555 would affect RORα and RORγ-dependent regulation of an IL-17 promoter driven luciferase reporter construct. HEK293 cells were transiently transfected with an IL-17 reporter, either full-length RORα or RORγ, and treated with an increasing concentration of SR1555[8]. In a dose dependent manner, SR1555 suppressed IL-17 promoter driven activity by RORγ but not RORα, further confirming that SR1555 is indeed a RORγ-specific inverse agonist (FIG. 1d). Finally, using EL4 cells, a murine thymoma which endogenously express RORα, RORγ t, and IL-17A, we examined whether SR1555 affected endogenous IL-17 gene expression. EL4 cells were treated with DMSO or SR1555 for 24 hours and analyzed for Il17a gene expression by quantitative real-time PCR.\nCotransfection assays were performed as previously described in HEK293 cells (Gal4 cotransfection assay or IL-17 luciferase reporter)[8]. […]\nHEK293 cells were maintained in Dulbecco's modified Eagle's medium (DMEM) supplemented with 10% fetal bovine serum at 37° C. under 5% CO2. […] The luciferase levels were assayed following additional 20 hour incubation by one-step addition of BriteLite Plus (Perkin Elmer) and read using an Envision (Perkin Elmer). […]"}, "RORα [3]": {"biological_target": "T3, RORα", "assay": "Gal4-RORα LBD / UAS luciferase cotransfection assay", "type": "cell-based", "conditions": "Gal4 chimeric cotransfection"}, "FXR": {"biological_target": "T5, FXR (Homo sapiens, UniProt Q96RI1)", "T5 sequence (Q96RI1 262-486 limits assumed)": "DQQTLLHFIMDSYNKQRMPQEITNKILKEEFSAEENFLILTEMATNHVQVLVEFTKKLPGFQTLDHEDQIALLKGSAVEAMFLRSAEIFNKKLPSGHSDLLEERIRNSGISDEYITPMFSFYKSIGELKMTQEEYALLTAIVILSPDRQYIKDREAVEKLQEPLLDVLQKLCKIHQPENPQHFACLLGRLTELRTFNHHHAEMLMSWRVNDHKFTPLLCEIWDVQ", "assay": "Gal4-FXR / UAS luciferase cotransfection assay", "type": "cell-based", "conditions": "Gal4 chimeric cotransfection"}, "[4]": {"conditions": "T regulatory polarizing conditions, 3 days"}}}
{"smiles": "O=S(=O)(c1ccccc1)N(CC(F)(F)F)c1ccc(C(O)(C(F)(F)F)C(F)(F)F)cc1", "note": "[Compound T1317]", "values": [{"measurement": "binding to RORβ", "setting": "RORβ", "value": "does in fact bind to RORβ"}]}
{"smiles": "CC(=O)N1CCN(Cc2ccc(-c3ccc(C(O)(C(F)(F)F)C(F)(F)F)cc3)cc2)CC1", "note": "[SR1555]", "values": [{"measurement": "effect on LXR activity", "setting": "LXR", "value": "devoid of LXR, FXR, and RORα activity"}, {"measurement": "displacement of [3H]T0901317 from RORα", "setting": "RORα [1]", "value": "not RORα"}, {"measurement": "inhibition of Il17a gene expression", "setting": "EL4 cells", "value": "greater than 70%"}, {"measurement": "expression of Foxp3+ T cells", "setting": "T regulatory cells; 5 days, FACS", "value": "almost two-fold increase"}, {"measurement": "gene expression of Foxp3", "setting": "T regulatory cells; [4]", "value": "effectively increased the gene expression of Foxp3"}, {"measurement": "gene expression of Rorγt", "setting": "T regulatory cells; [4]", "value": "suppressing the gene expression of Rorγt"}, {"measurement": "IL-17 promoter driven activity by RORα", "setting": "RORα [2]", "value": "not RORα"}, {"measurement": "effect on transcriptional activity of RORα", "setting": "RORα [3]", "value": "devoid of LXR, FXR, and RORα activity"}, {"measurement": "effect on transcriptional activity of FXR", "setting": "FXR", "value": "devoid of LXR, FXR, and RORα activity"}]}
